Results as given in DBAASP.
Values after ≈ are worked out from the molar mass of the structure shown.

Key:
Test in all cases: ≥ marks a high value that may be exact or a test limit, other limits are often not marked, values filed in µg/mL are converted to µM
[1] = test system: Bacillus licheniformis X39
[2] = test system: Enterococcus faecium 091299
[3] = test system: Staphylococcus aureus ATCC 25923
[4] = test system: Candida albicans ATCC 2002
[5] = test system: Escherichia coli ATCC 25922
[6] = test system: Psychrobacter faecalis X29
[7] = test system: Staphylococcus carnosus KHS
[8] = test system: Enterococcus faecalis 981
[9] = test system: Rhodococcus rhodochrous X15
[10] = test system: Staphylococcus aureus
[11] = test system: Bacillus subtilis 168
[12] = test system: Candida albicans F7-39/IDE99
[13] = test system: Pseudomonas aeruginosa
[14] = test system: Escherichia coli B
[15] = test system: Pseudomonas putida
[16] = test system: Micrococcus luteus AB2010179
[17] = test system: Enterobacter cloacae AB2010162
[18] = test system: Acinetobacter baumannii ATCC 19606
[19] = test system: Pseudomonas fluorescens
[20] = test system: Klebsiella pneumoniae ATCC 27736
[21] = test system: Bacillus magaterium AB90008
[22] = test system: Escherichia coli DH5alpha
[23] = test system: Pseudomonas aeruginosa ATCC BAA-427
[24] = test system: Staphylococcus aureus AB94004
[25] = test system: Salmonella enterica AB2010185
[26] = test system: Staphylococcus aureus ATCC 33591
[27] = test system: Escherichia coli ATCC 25726
[28] = test system: Acinetobacter baumannii NM8
[29] = test system: Staphylococcus aureus 127/08
[30] = test system: Stenotrophomonas maltophilia B32/4
[31] = test system: Stenotrophomonas maltophilia B32/1
[32] = test system: Corynebacterium xerosis C875
[33] = test system: Escherichia coli UB1005
[34] = test system: Staphylococcus epidermidis C621
[35] = test system: Escherichia coli DC2
[36] = test system: Streptococcus pyogenes ATCC 19615
[37] = test system: Salmonella enterica subsp. enterica serovar Typhimurium ATCC 14028
[38] = test system: Enterococcus faecalis ATCC 12953
[39] = test system: Escherichia coli ATCC 8739
[40] = test system: Klebsiella pneumoniae ATCC 13885
[41] = test system: Pseudomonas aeruginosa ATCC 15442
[42] = test system: Bacillus subtilis ATCC 6633
[43] = test system: Proteus mirabilis ATCC 25933
[44] = test system: Staphylococcus aureus ATCC 29213

SMILES: CC[C@H](C)[C@H](NC(=O)[C@H](CC(C)C)NC(=O)[C@@H]1CCCN1C(=O)[C@H](CC(C)C)NC(=O)[C@@H](N)Cc1ccccc1)C(=O)N[C@@H](C)C(=O)N[C@@H](CO)C(=O)N[C@H](C(=O)N[C@@H](C)C(=O)N[C@@H](C)C(=O)N[C@@H](CC(N)=O)C(=O)N[C@@H](CC(C)C)C(=O)N[C@H](C(=O)N1CCC[C@H]1C(=O)N[C@@H](CCCCN)C(=O)N[C@H](C(=O)N[C@@H](Cc1ccccc1)C(=O)N[C@H]1CSSC[C@@H](C(=O)O)NC(=O)[C@H](CCCCN)NC(=O)[C@H](CCCCN)NC(=O)[C@H]([C@@H](C)O)NC(=O)[C@H]([C@@H](C)CC)NC(=O)[C@H](CCCCN)NC1=O)[C@@H](C)CC)C(C)C)C(C)C [FLPLIASVAANLVPKIFCKITKKC]
- MIC [1]: 2.4 µM (≈ 6.28 µg/mL)
- MIC [2]: ≥ 37.5 µM
- MIC [3]: 2.4 µM (≈ 6.28 µg/mL)
- MIC [4]: 9.5 µM (≈ 24.9 µg/mL)
- MIC [5]: 150 µM (≈ 392 µg/mL)
- MIC [6]: 9.5 µM (≈ 24.9 µg/mL)
- MIC [7]: 19 µM (≈ 49.7 µg/mL)
- MIC [8]: ≥ 75 µM
- MIC [9]: 1.2 µM (≈ 3.14 µg/mL)

SMILES: CC[C@H](C)[C@H](NC(=O)[C@H](Cc1cnc[nH]1)NC(=O)[C@H](CCCCN)NC(=O)[C@H](CC(C)C)NC(=O)[C@H](Cc1ccccc1)NC(=O)[C@H](CO)NC(=O)[C@H](CCSC)NC(=O)[C@H](Cc1c[nH]c2ccccc12)NC(=O)[C@H](CCCCN)NC(=O)CN)C(=O)N[C@@H](CC(C)C)C(=O)N[C@@H](CCCCN)C(N)=O [GKWMSFLKHILK]
- MIC [10]: 6.4 µM (≈ 9.52 µg/mL)
- MIC [11]: 1.1 µM (≈ 1.64 µg/mL)
- MIC [12]: 6.8 µM (≈ 10.1 µg/mL)
- MIC [13]: 21.8 µM (≈ 32.4 µg/mL)
- MIC [14]: 4 µM (≈ 5.95 µg/mL)

SMILES: CC[C@H](C)[C@H](N)C(=O)N[C@@H](CC(C)C)C(=O)NCC(=O)N[C@@H](CCC(=O)O)C(=O)N[C@H](C(=O)N[C@@H](Cc1c[nH]c2ccccc12)C(=O)N[C@@H](CCCCN)C(=O)NCC(=O)N[C@H](C(=O)N[C@@H](CCCCN)C(=O)N[C@@H](CC(=O)O)C(=O)N[C@H](C(=O)N[C@@H](CC(C)C)C(N)=O)[C@@H](C)CC)[C@@H](C)CC)[C@@H](C)CC [ILGEIWKGIKDIL]
- MIC [15]: ≥ 82 µM
- MIC [16]: ≥ 82 µM
- MIC [17]: ≥ 82 µM
- MIC [18]: > 26.7 µM
- MIC [3]: ≥ 100 µM
- MIC [19]: ≥ 82 µM
- MIC [5]: ≥ 100 µM
- MIC [20]: ≥ 100 µM
- MIC [21]: ≥ 41 µM
- MIC [22]: ≥ 82 µM
- MIC [23]: ≥ 100 µM
- MIC [24]: ≥ 82 µM
- MIC [25]: ≥ 82 µM
- MIC [26]: ≥ 100 µM

SMILES: CC[C@H](C)[C@@H]1NC(=O)[C@H](CCCCN)NC(=O)[C@@H](NC(=O)[C@H](C)NC(=O)[C@@H](NC(=O)[C@H](CC(C)C)NC(=O)[C@H](CC(=O)O)NC(=O)[C@@H](NC(=O)CNC(=O)[C@H](CC(C)C)NC(=O)[C@H](CCCCN)NC(=O)[C@H](C)NC(=O)[C@H](CC(C)C)NC(=O)[C@H](CC(=O)O)NC(=O)[C@H](CCCCN)NC(=O)CNC(=O)[C@H](CC(C)C)NC(=O)CNC(=O)[C@@H](N)CCCCN)C(C)C)C(C)C)CSSC[C@@H](C(=O)O)NC(=O)[C@H](CCC(N)=O)NC(=O)[C@H](CCCCN)NC(=O)[C@H](CO)NC1=O [KGLGKDLAKLGVDLVACKISKQC]
- MIC [27]: ≥ 200 µM
- MIC [28]: ≥ 200 µM
- MIC [3]: > 200 µM
- MIC [29]: ≥ 200 µM
- MIC [30]: ≥ 200 µM
- MIC [31]: ≥ 200 µM

SMILES: C[C@H](NC(=O)[C@H](C)NC(=O)[C@H](C)NC(=O)[C@H](Cc1cnc[nH]1)NC(=O)[C@H](C)NC(=O)[C@H](C)NC(=O)[C@H](C)NC(=O)[C@H](CCCCN)NC(=O)[C@@H](N)CCCCN)C(=O)N[C@@H](C)C(=O)N[C@@H](C)C(=O)N[C@@H](Cc1cnc[nH]1)C(=O)N[C@@H](C)C(=O)N[C@@H](C)C(=O)N[C@@H](Cc1c[nH]c2ccccc12)C(=O)N[C@@H](C)C(=O)N[C@@H](C)C(=O)N[C@@H](Cc1cnc[nH]1)C(=O)N[C@@H](C)C(=O)N[C@@H](C)C(=O)N[C@@H](C)C(=O)N[C@@H](CCCCN)C(=O)N[C@@H](CCCCN)C(=O)N[C@@H](CCCCN)C(=O)N[C@@H](CCCCN)C(N)=O [KKAAAHAAAAAHAAWAAHAAAKKKK]
- MIC [32]: ≥ 32 µM
- MIC [33]: ≥ 64 µM
- MIC [34]: ≥ 64 µM
- MIC [35]: ≥ 64 µM

SMILES: NCCCC[C@H](NC(=O)[C@@H](N)CCCCN)C(=O)N[C@@H](Cc1ccccc1)C(=O)N[C@@H](Cc1c[nH]c2ccccc12)C(=O)N[C@@H](CCC(=O)O)C(=O)N[C@@H](CC(=O)O)C(=O)N[C@@H](CC(=O)O)C(=O)NCC(N)=O [KKFWEDDG]
- MIC [36]: ≥ 125 µM
- MIC [37]: 125 µM (≈ 128 µg/mL)
- MIC [38]: ≥ 125 µM
- MIC [39]: ≥ 250 µM
- MIC [40]: ≥ 125 µM
- MIC [41]: ≥ 250 µM
- MIC [42]: ≥ 250 µM
- MIC [43]: ≥ 125 µM
- MIC [44]: 250 µM (≈ 256 µg/mL)
